Active and inactive are the calls of the source. The calls are words filed in the database; no cut-off is given here.
Assays:
Rattus norvegicus [1] = organism: Rattus norvegicus; assay: Hypolipidemic activity was expressed as percent decrease in serum cholesterol; type: functional; set-up: concentration or dose not given beside the values
Rattus norvegicus [2] = organism: Rattus norvegicus; assay: Hypolipidemic activity was expressed as percent decrease in triglycerides; type: functional; set-up: concentration or dose not given beside the values
Rattus norvegicus [3] = organism: Rattus norvegicus; assay: Ability to inhibit collagen -induced platelet aggregation in male SD rats; <10; type: functional; set-up: concentration or dose not given beside the values
Rattus norvegicus [4] = organism: Rattus norvegicus; assay: Hypolipidemic activity was expressed as percent decrease in serum cholesterol in Sprague-Dawley rats; type: functional; set-up: concentration or dose not given beside the values
Rattus norvegicus [5] = organism: Rattus norvegicus; assay: The ability to inhibit platelet aggregation was tested; Inhibition >= 10% but < aspirin (34-96%); type: functional
Rattus norvegicus [6] = organism: Rattus norvegicus; assay: Hypolipidemic activity was expressed as percent decrease in triglycerides in Sprague-Dawley rats; type: functional; set-up: concentration or dose not given beside the values
Rattus norvegicus [7] = organism: Rattus norvegicus; assay: Inhibition of collagen-induced platelet aggregation in male SD rats; Inhibition >= 10% but < aspirin (34-96%).; type: functional
Rattus norvegicus [8] = organism: Rattus norvegicus; assay: The ability to inhibit platelet aggregation was tested; <10; type: functional
Rattus norvegicus [9] = organism: Rattus norvegicus; assay: Hypolipidemic activity was expressed as percent decrease in triglycerides; No evaluation; type: functional, organism-based
Rattus norvegicus [10] = organism: Rattus norvegicus; assay: Ability to inhibit collagen -induced platelet aggregation in male SD rats; No evaluation; type: functional, organism-based
Rattus norvegicus [11] = organism: Rattus norvegicus; assay: Hypolipidemic activity was expressed as percent decrease in serum cholesterol in Sprague-Dawley rats; No evaluation; type: functional, organism-based
Rattus norvegicus [12] = organism: Rattus norvegicus; assay: Hypolipidemic activity was expressed as percent decrease in serum cholesterol; NE means no evaluation; type: functional, organism-based
Rattus norvegicus [13] = organism: Rattus norvegicus; assay: Hypolipidemic activity was expressed as percent decrease in triglycerides; NE means no evaluation; type: functional, organism-based
Rattus norvegicus [14] = organism: Rattus norvegicus; assay: Ability to inhibit collagen -induced platelet aggregation in male SD rats; NE means no evaluation; type: functional, organism-based
Rattus norvegicus [15] = organism: Rattus norvegicus; assay: Ability to inhibit collagen -induced platelet aggregation in male SD rats; Inhibition >= aspirin (34-96%); type: functional, organism-based

Compound | Reduction (Rattus norvegicus [4]) [%] | Reduction (Rattus norvegicus [6]) [%] | Inhibition (Rattus norvegicus [7]) | also measured
CCCCCCCCCCCCOC(=O)Cc1nc(-c2ccc(Cl)cc2)oc1-c1ccco1 | – | – | – | Reduction (Rattus norvegicus [1]): 20%; Reduction (Rattus norvegicus [2]): 30%; Inhibition (Rattus norvegicus [3]): <10%
CCOC(=O)C(C)c1nc(-c2ccc(Cl)cc2)oc1-c1ccco1 (configuration not stated) | 20 | 31 | – | Inhibition (Rattus norvegicus [5]): >=10%
CC(C)c1nc(CC(=O)O)c(-c2ccsc2)o1 | 20 | 16 | >=10% | –
CC(C)(C(=O)O)c1nc(-c2ccc(Cl)cc2)oc1-c1ccco1 | 16 | 54 | – | Inhibition (Rattus norvegicus [8]): <10%
O=C(Cc1nc(-c2ccc(Cl)cc2)oc1-c1ccco1)OCc1cccnc1 | 18 | 42 | – | Inhibition (Rattus norvegicus [3]): <10%
CCOC(=O)Cc1nc(-c2ccccc2)oc1-c1ccoc1 | 17 | 46 | >=10% | –
CCCCc1nc(CC(=O)OCC)c(-c2ccco2)o1 | 2 | 16 | – | –
CCOC(=O)Cc1nc(C)oc1-c1ccco1 | – | – | – | Reduction (Rattus norvegicus [9]): No effect; inhibition (Rattus norvegicus [10]): No effect; Reduction (Rattus norvegicus [11]): No effect
O=C(O)Cc1nc(-c2ccc(Cl)cc2)oc1-c1ccoc1 | 23 | 42 | – | –
O=C(O)Cc1nc(-c2ccc(Cl)cc2)oc1-c1ccco1 | 20 | 35 | >=10% | –
CCOC(=O)Cc1nc(-c2ccc(F)cc2)oc1-c1ccco1 | 20 | 24 | >=10% | –
CCOC(=O)Cc1nc(-c2ccc(F)cc2)oc1-c1ccoc1 | 30 | 28 | >=10% | –
CCOC(=O)Cc1nc(-c2ccc(Cl)cc2)oc1-c1ccco1 | 23 | 35 | >=10% | –
CCOC(=O)Cc1nc(-c2ccc(C)cc2)oc1-c1ccco1 | 9 | -6 | >=10% | –
CCOC(=O)Cc1nc(-c2ccc(Cl)cc2)oc1-c1ccc(S(=O)(=O)O)o1 | -5 | 23 | – | –
CCOC(=O)Cc1nc(-c2ccc(Cl)cc2)oc1-c1ccc(Br)o1 | 10 | 2 | – | –
O=C(O)Cc1nc(C2CCCCC2)oc1-c1ccco1 | 13 | 18 | >=10% | –
CCOC(=O)C(C)c1nc(-c2ccc(Cl)cc2)oc1-c1ccoc1 (configuration not stated) | 22 | 45 | – | Inhibition (Rattus norvegicus [5]): >=10%
CCOC(=O)Cc1nc(-c2ccc(Cl)cc2)oc1-c1ccoc1 | 25 | 42 | >=10% | –
CCCCCCCOC(=O)Cc1nc(-c2ccc(Cl)cc2)oc1-c1ccco1 | – | – | – | Reduction (Rattus norvegicus [1]): 19%; Reduction (Rattus norvegicus [2]): 42%; Inhibition (Rattus norvegicus [3]): <10%
CC(C)c1nc(CC(=O)O)c(-c2ccco2)o1 | 5 | 9 | – | Inhibition (Rattus norvegicus [3]): <10%
O=C(O)Cc1nc(-c2cccc(C(F)(F)F)c2)oc1-c1ccco1 | 8 | 50 | >=10% | –
CCOC(=O)Cc1nc(-c2ccc(Cl)cc2)oc1-c1ccc(C=O)o1 | – | – | – | Reduction (Rattus norvegicus [1]): 9%; Reduction (Rattus norvegicus [2]): -5%
CCCCCCCc1nc(CC(=O)OCC)c(-c2ccsc2)o1 | – | – | – | Reduction (Rattus norvegicus [12]): No effect; Reduction (Rattus norvegicus [13]): No effect; inhibition (Rattus norvegicus [14]): No effect
Cc1nc(CC(=O)O)c(-c2ccco2)o1 | 10 | -20 | – | Inhibition (Rattus norvegicus [3]): <10%
O=C(O)Cc1nc(-c2ccc(F)cc2)oc1-c1ccoc1 | 23 | 38 | >=10% | –

Compound | Reduction (Rattus norvegicus [4]) [%] | Reduction (Rattus norvegicus [6]) [%] | Inhibition (Rattus norvegicus [7]) | also measured
CCCCCCCc1nc(CC(=O)O)c(-c2ccsc2)o1 | – | – | >=10% | Reduction (Rattus norvegicus [1]): 11%; Reduction (Rattus norvegicus [2]): 27%
CCOC(=O)C(C)(C)Oc1ccc(Cl)cc1 [CLOFIBRATE] | – | – | – | Reduction (Rattus norvegicus [1]): 15%; Reduction (Rattus norvegicus [2]): 30%; Inhibition (Rattus norvegicus [3]): <10%
O=C(O)Cc1nc(-c2ccc(Cl)c(Cl)c2)oc1-c1ccoc1 | 19 | 60 | >=10% | –
COc1ccc(-c2nc(CC(=O)O)c(-c3ccco3)o2)cc1 | 5 | -1 | >=10% | –
CCOC(=O)C(C)(C)c1nc(-c2ccc(Cl)cc2)oc1-c1ccco1 | -4 | -25 | – | Inhibition (Rattus norvegicus [8]): <10%
CCOC(=O)Cc1nc(-c2ccc(OC)cc2)oc1-c1ccco1 | 0 | 4 | >=10% | –
CCOC(=O)Cc1nc(-c2ccc(Cl)cc2)oc1-c1ccc(C(C)=O)o1 | 0 | -14 | – | –
CCOC(=O)Cc1nc(-c2ccccc2)oc1C1CCCO1 (configuration not stated) | 8 | 8 | – | Inhibition (Rattus norvegicus [3]): <10%
CC(=O)Oc1ccccc1C(=O)O | – | – | – | inhibition (Rattus norvegicus [15]): Active
CCOC(=O)Cc1nc(C(C)C)oc1-c1ccco1 | 12 | 21 | – | Inhibition (Rattus norvegicus [3]): <10%
CCOC(=O)C(CC)c1nc(-c2ccc(Cl)cc2)oc1-c1ccco1 (configuration not stated) | 0 | -10 | – | Inhibition (Rattus norvegicus [8]): <10%
CCOC(=O)Cc1nc(-c2ccc(Cl)cc2)sc1-c1ccsc1 | -8 | 21 | – | inhibition (Rattus norvegicus [10]): No effect
CCCCOC(=O)Cc1nc(-c2ccc(Cl)cc2)oc1-c1ccco1 | 20 | 27 | – | Inhibition (Rattus norvegicus [3]): <10%
Cc1ccc(-c2nc(CC(=O)O)c(-c3ccco3)o2)cc1 | 9 | 29 | >=10% | –
O=C(O)Cc1nc(-c2ccccc2)oc1-c1ccco1 | 14 | 29 | >=10% | –
CCOC(=O)Cc1nc(-c2ccc(Cl)cc2)oc1N1CCCC1 | -2 | -20 | – | –
CCOC(=O)Cc1nc(-c2ccc(Cl)cc2)oc1-c1ccsc1 | 23 | 39 | – | Inhibition (Rattus norvegicus [5]): >=10%
CCOC(=O)Cc1nc(-c2cccc(C(F)(F)F)c2)oc1-c1ccco1 | 15 | 0 | – | Inhibition (Rattus norvegicus [3]): <10%
CCOC(=O)Cc1nc(-c2ccc(Cl)c(Cl)c2)oc1-c1ccoc1 | 19 | 49 | – | Inhibition (Rattus norvegicus [3]): <10%
CCOC(=O)Cc1nc(C(C)C)oc1-c1ccsc1 | 15 | 28 | >=10% | –
CCOC(=O)Cc1nc(-c2ccccc2)oc1-c1ccco1 | 14 | 23 | >=10% | –
CCOC(=O)Cc1nc(C2CCCCC2)oc1-c1ccco1 | – | – | – | Reduction (Rattus norvegicus [9]): No effect; inhibition (Rattus norvegicus [10]): No effect; Reduction (Rattus norvegicus [11]): No effect
CCOC(=O)Cc1nc(-c2ccc(Cl)cc2)sc1-c1ccco1 | -15 | 17 | – | –
CC(C(=O)O)c1nc(-c2ccc(Cl)cc2)oc1-c1ccco1 (configuration not stated) | 16 | 41 | – | –
O=C(O)Cc1nc(-c2ccc(F)cc2)oc1-c1ccco1 | – | – | >=10% | Reduction (Rattus norvegicus [1]): 20%; Reduction (Rattus norvegicus [2]): 10%

— ChEMBL document CHEMBL1124271, “Synthesis of ethyl 2-(4-chlorophenyl)-5-(2-furyl)-4-oxazoleacetate, a hypolipidemic agent, and related compounds” (1988)
